Reference: patent US9315815B2, “Method of high-throughput sorting of high expression cell and cells sorted therefrom” (Taipei Medical University, priority 2013, dated 2016)

Key:
furin protease [1] = target: T1, furin protease (Homo sapiens, UniProt P09958); test: Secretion of anti-EGFR antibody by 293T/anti-EGFR cells with furin inhibitor; assay type: cell-based; conditions: furin inhibitor added vs absent (FIG. 2A)
T1 construct: rich furin protease in Golgi can effectively cleave a furin cleavage site; endogenous in cells; host or cells: 293T/anti-EGFR (HEK-293 derived) cells
T1 sequence (P09958 108-794): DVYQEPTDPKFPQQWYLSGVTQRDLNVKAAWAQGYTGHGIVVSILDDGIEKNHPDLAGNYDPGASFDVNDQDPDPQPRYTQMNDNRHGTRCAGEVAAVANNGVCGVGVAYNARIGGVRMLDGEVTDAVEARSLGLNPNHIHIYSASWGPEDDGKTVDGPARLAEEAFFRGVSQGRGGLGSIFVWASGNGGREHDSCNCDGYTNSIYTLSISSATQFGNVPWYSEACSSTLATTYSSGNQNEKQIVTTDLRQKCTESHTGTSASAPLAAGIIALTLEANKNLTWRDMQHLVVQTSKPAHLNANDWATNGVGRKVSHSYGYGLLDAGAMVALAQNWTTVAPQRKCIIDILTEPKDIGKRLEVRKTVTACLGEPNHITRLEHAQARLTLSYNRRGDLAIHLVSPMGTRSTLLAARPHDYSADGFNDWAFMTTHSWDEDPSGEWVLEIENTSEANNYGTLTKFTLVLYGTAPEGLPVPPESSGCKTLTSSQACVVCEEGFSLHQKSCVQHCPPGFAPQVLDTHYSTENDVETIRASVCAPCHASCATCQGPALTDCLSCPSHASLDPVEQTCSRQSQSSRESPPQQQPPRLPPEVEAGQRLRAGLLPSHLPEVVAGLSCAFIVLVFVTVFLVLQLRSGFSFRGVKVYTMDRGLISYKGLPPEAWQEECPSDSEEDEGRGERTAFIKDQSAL
From the text: (§1) (A) To detect the concentration of anti-EGFR antibody of 293T/anti-EGFR cell culture, Dec-RVKR-CMK was used as furin inhibitor. The Y axis represents concentration of the secreted anti-EGFR antibody, while the X axis represents cell groups. […] (B) To detect anti-EGFR Ab-RAKR-mB7 expression of 293T/anti-EGFR on cell membrane, FACS technology combined with FITC conjugated anti-human IgG antibody was used. The filled region represents 293T cells as control group; the solid line represents 293T/anti-EGFR cell without furin inhibitor; the dashed line represents 293T/anti-EGFR cell with furin inhibitor.
Take a humanized anti-EGFR antibody, for example; we transfected an anti-EGFR Ab-RAKR-mB7 gene into a human embryonic kidney cell with a Lentivirus vector to construct a 293T/anti-EGFR cell line. In the absence of a furin inhibitor (Dec-RVKR-CMK), said 293T/anti-EGFR can continuously secrete anti-EGFR antibody into extracellular matrix (see FIG. 2A).

furin protease [2] = target: T1, furin protease; test: FACS detection of anti-EGFR Ab-RAKR-mB7 on 293T/anti-EGFR cell membrane with furin inhibitor; assay type: cell-based; conditions: 293T/anti-EGFR cells, furin inhibitor added, FITC anti-human IgG, FACS (FIG. 2B)
From the text: as §1
The gene was transfected into mammalian cells (human embryonic kidney cells, HEK-293). Under normal conditions, rich furin protease in Golgi can effectively cleave a furin cleavage site ([…]) between anti-EGFR antibody and mB7 to allow secretion of the anti-EGFR antibody into an extracellular matrix. When furin inhibitor (DEC-RVKR-CMK) was added, to inhibit the activity of the furin protease, the anti-EGFR Ab-RAKR-mB7 would not be cleaved by furin protease and would be stably anchored on the cell membrane surface. Then, FITC-conjugated anti-human antibody was used to label the anti-EGFR Ab-RAKR-mB7 on the cell membranes. By using FACS, the cells with high expression of anti-EGFR Ab-RAKR-mB7 on their cell membranes can be rapidly and high-throughput sorted. […]

furin protease [3] = target: T2, furin protease (Cricetulus griseus, UniProt A0A9J7CGZ7); test: FACS detection of PCD-GB-RAKR-mB7 on LEC1/PCD-GB cell membrane with furin inhibitor; assay type: cell-based, Chinese Hamster; conditions: LEC1/PCD-GB cells, furin inhibitor added, anti-myc antibody, FACS (FIG. 6B)
T2 construct: rich furin protease in Golgi can effectively cleave furin cleavage site; endogenous in cells; host or cells: LEC1/PCD-GB (CHO Lec1) cells
T2 sequence (A0A9J7CGZ7 27-794): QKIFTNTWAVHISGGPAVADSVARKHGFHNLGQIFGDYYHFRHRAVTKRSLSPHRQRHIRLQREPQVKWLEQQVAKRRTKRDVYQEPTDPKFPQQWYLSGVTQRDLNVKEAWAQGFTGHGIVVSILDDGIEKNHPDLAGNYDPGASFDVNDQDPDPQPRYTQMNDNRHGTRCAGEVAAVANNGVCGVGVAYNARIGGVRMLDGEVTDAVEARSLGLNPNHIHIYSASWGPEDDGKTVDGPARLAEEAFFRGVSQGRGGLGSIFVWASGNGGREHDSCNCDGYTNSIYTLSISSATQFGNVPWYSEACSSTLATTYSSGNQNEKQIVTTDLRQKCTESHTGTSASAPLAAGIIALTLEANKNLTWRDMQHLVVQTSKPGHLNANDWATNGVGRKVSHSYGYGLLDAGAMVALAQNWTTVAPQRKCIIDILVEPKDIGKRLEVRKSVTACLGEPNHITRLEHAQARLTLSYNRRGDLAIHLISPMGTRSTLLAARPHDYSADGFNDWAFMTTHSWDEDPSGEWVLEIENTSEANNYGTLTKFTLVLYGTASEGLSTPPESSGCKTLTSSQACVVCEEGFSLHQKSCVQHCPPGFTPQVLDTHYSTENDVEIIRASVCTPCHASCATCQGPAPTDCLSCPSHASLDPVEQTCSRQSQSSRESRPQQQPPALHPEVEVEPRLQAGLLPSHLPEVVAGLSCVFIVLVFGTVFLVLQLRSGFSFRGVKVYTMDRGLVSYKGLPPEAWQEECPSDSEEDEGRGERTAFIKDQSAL
From the text: (A) To detect the expression of PCD-GB recombinant protein in LEC1 and LEC1/PCD-GB cells, Western blot technique accompanied with mouse anti-myc antibody and goat anti-mouse IgG-HRP was used. (B) Furin inhibitor (Dec-RVKR-CMK) was used to inhibit the furin activity of LEC1 and LEC1/PCD-GB cells. Then, to detect the expression of PCD-GB-RAKR-mB7 on cell membrane, FACS technology accompanied with mouse anti-myc antibody and goat anti-mouse IgG-HRP was used. The filled region represents LEC1 cells as control group; solid line represents LEC1/PCD-GB cells without furin inhibitor; dashed line represents LEC1/PCD-GB cells with furin inhibitor. (C) The X axis represents the expression of PCD-GB-RAKR-mB7 on cell membrane (mean relative fluorescence intensity). The Y axis represents the production of PCD-GB stored in lysosomes. Each dot represents a single individual LEC1/PCD-GB cell.
Example 2 exemplifies a perforin-granzyme fusion protein (PCD-GB) which is expressed in lysosome. […] The gene was transfected into mammalian cells (Chinese Hamster Ovary cells, LEC1). Under normal conditions, rich furin protease in Golgi can effectively cleave furin cleavage site ([…]) between PCD-GB and mB7 so that PCD-GB would be stored in lysosome. […]

Dec-RVKR-CMK
secretion of anti-EGFR antibody (furin protease [1]): decreased secretion of anti-EGFR antibody | expression of anti-EGFR Ab-RAKR-mB7 on cell membrane (furin protease [2]): expression of anti-EGFR Ab-RAKR-mB7 was on the cell membrane | PCD-GB-RAKR-mB7 detected on cell membrane (furin protease [3]): few PCD-GB-RAKR-mB7 would be detected on the LEC1/PCD-GB cell membrane
